For orientation: Km means the substrate concentration at which the rate is half of its maximum.

The values below come from US8845999B2 (The Regents of the University of California, priority 2005, dated 2014).

Data set [1] has as its target T1, SGLT1 (Homo sapiens, UniProt P13866).
T1 sequence (P13866 1-664): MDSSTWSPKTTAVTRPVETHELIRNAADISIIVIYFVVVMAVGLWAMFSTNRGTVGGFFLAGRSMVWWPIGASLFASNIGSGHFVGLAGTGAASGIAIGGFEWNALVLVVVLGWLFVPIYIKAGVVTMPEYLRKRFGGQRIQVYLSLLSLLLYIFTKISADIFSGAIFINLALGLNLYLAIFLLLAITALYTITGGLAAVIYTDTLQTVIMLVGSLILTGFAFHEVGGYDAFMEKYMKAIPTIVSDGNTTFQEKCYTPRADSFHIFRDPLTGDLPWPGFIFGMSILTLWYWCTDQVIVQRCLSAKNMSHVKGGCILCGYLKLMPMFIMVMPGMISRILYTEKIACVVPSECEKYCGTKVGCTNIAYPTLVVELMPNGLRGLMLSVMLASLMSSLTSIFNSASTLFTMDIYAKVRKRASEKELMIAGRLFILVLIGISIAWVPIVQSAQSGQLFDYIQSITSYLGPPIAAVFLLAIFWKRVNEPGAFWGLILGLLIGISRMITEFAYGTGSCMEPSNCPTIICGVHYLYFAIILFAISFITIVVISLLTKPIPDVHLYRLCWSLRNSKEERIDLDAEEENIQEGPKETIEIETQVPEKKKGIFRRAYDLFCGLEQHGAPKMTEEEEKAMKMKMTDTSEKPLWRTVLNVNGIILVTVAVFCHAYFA
Kind of data set: Affinity for SGLT1. It is filed as biochemical. The text has this: A [^11C]-methyl-D-glucoside has been synthesized and biologically evaluated as a tracer of sodium dependent glucose transporters. […] A commentary on this paper was published in the same issue of the journal. […] In addition, three ^18F-fluoro-n-alkyl glucosides have been synthesized and evaluated as potential substrates for sodium/glucose cotransporters. […] There are limitations with these probes in that the lifetime of [^11C] is shorter than that of [^18F]
Optionally, additional information can be obtained by also administering one or more pharmacological or other agents to the animal, and monitoring the effect of the agent(s) on tracer uptake and distribution. Nonlimiting examples of suitable agents, include sodium ion, glucose, galactose, and phlorizin. […] Any therapeutic agent can also be used to evaluate its potential role and in vivo activity on SGLTs in various organs, using in vivo competitive kinetics with the radiolabeled tracer.

The test system of data set [2] is SGLTs. Kind of data set: MicroPET images of rat's brain after intravenous injection of radiofluorinated glucose derivatives. To be noted: same animal, images 50-70 min after intravenous injection, FIG. 7. Here is the method:
A bolus of a radiolabeled tracer is administered to a non-human primate, rodent, or other non-human mammal, intravenously or orally, and the distribution of tracer transport activity is followed by radiographic means, e.g., PET, microPET and/or SPECT. For PET, an intravenous dose of the tracer contains ˜200 μC/Kg (body weight) methyl 4-[^18F]fluoro-4-deoxy-D-glucopyranoside dissolved in <1 ml saline. […] The identity of each organ and tissue taking up the tracer is confirmed by CT scans.
FIG. 7 presents MicroPET images of a rat's brain after injection of radiofluorinated glucose derivatives. […] These experiments were performed in the same animal at three different occasions. […] The images were acquired using a Concorde 220 microPET camera (Siemens/CTI, Knoxville, Tenn.). The animal was kept under anesthesia with 2% isoflurane in oxygen during all three experiments. Injectable solutions of all radiotracers were prepared in normal saline (0.9% NaCl).

Data set [3] concerns SGLTs. Briefly: Whole body PET scan of human subjects. It is filed as in vivo. The settings on record: normal human subject, FIGS. 4 and 5. As to the method:
For a 50-70 kg person, 10 mC of methyl 4-deoxy-4-[^18F]fluoro-D-glucopyranoside dissolved in <1 ml saline is injected intravenously, and the distribution of the tracer is followed dynamically in whole body PET scans for up to 2 hours (up to 8 scans at different time intervals). SGLT activity in organs and tissues is determined from the tracer uptake. The anatomical location of tracer uptake in both normal subjects and cancer patients is determined using CT scans.
FIGS. 4 and 5 are nonlimiting examples of 2-[^18F]-FDG and Methyl 4[^18F]-FDG scans, respectively, of the same human subject.
FIG. 6 is a nonlimiting example of a whole body PET scan of a patient with Glucose-Galactose-Malabsorption (missing functional SGLT1 in their body), after being injected with Me-[18F]-4FDG.

Data set [4] concerns T2, Hexokinase.
T2 construct: Hexokinase Ki; other: Bessel (1972); Hexokinase Vmax; D-glucose = 1; hexokinase maximum velocity lower than that for D-glucose
Set-up: Hexokinase Vmax: unit not given here. To be noted: Bessel (1972), cited from earlier work; for Hexokinase Vmax: D-glucose = 1.

The next data set addresses T3, human GLUT1 (Homo sapiens, UniProt P11166).
T3 construct: host or cells: human erythrocytes (endogenous transporter)
T3 sequence (P11166 1-492): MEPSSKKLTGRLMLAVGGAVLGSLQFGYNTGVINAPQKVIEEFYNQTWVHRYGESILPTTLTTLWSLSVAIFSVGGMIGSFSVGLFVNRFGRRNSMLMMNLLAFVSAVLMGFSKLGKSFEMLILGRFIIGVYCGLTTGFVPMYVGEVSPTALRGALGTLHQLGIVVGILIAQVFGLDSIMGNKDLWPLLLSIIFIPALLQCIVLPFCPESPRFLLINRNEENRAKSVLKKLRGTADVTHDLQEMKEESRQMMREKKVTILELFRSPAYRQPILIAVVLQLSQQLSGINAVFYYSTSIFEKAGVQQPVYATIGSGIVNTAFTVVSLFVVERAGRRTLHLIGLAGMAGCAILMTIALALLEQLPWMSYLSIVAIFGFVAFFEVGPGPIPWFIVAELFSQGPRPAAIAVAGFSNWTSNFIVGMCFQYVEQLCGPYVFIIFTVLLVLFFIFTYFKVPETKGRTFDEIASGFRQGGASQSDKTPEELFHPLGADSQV
The settings on record: cited from earlier work.

Data set [5] deals with T2, Hexokinase. Kind of data set: Hexokinase kinetics (Bessel 1972). It is filed as biochemical. The settings on record: from Table 2.
Data set [6] has as its system Hexokinase. Kind of data set: Hexokinase kinetics (Bessel 1972). It is filed as biochemical.
For data set [7], the system named is SGLT1. To be noted: pumped into cells by SGLT1; cited from earlier work.
A short description of data set [8]: Preliminary microPET studies of brain uptake. The settings on record: rodent.
Substrate in data set [9]: O=C[C@H](O)[C@@H](O)[C@H](O)[C@H](O)CO
Kind of data set: Kinetics of halogenated hexose transport by human SGLT1 expressed in Xenopus laevis oocytes, electrophysiological assay. In kind it is cell-based. To be noted: other: human SGLT1 in Xenopus laevis oocytes. The text has this:
(§1) We have expressed human SGLT1 in the Xenopus laevis oocyte expression system and measured the kinetics of halogenated hexose transport using standard electrophysiological assays (see Diez-Sampedro et al. J. Biological Chemistry, 2001, 276: 49188-49194). Table 2 presents kinetic measurements of the SGLT1 affinities of various sugars. […] “Km.” is the Michaelis-Menten constant and refers to the ability of a sugar to be a substrate for a specific enzyme or transporter. The lower the Km, the better the substrate. “Vmax” refers to the maximum velocity of transport (or enzymatic reaction). Km is the concentration of substrate at ½ Vmax. “Ki” is an inhibition constant for a specific enzyme or transporter, obtained by competitive kinetics against a known substrate.

Substrate in data set [10]: O=C[C@H](O)[C@@H](O)[C@@H](O)[C@H](O)CO
The description is as above. The settings on record: other: human SGLT1 in Xenopus laevis oocytes. It is filed as cell-based.
From the text: as §1

Setting [11] is: Barnett et al. 1973, read-out: inhibitor constants for sugar uptakes into human erythrocytes.
[12] abbreviates: Barnett et al. (1973), read-out: GLUT1 Ki.

Where two headings read alike, the source gives them in different places.

Consider `COC1O[C@H](CO)[C@@H](F)[C@H](O)[C@H]1O` (stereo partly drawn) [Me-4-[^18F]-FDG, methyl 4-deoxy-4-[^18F]fluoro-D-glucopyranoside], for which, at SGLT1 [1], the Km was determined as 50 µM.

With `OC[C@H]1OC(O)[C@H]([18F])[C@@H](O)[C@@H]1O` (stereo partly drawn) [2-F-2-deoxy-D-glucose, 2-deoxy-2-[^18F]fluoro-D-glucose], the “brain uptake / crossing of the blood-brain barrier, microPET” value in the data set on SGLTs [2] was “cross the blood-brain barrier and accumulate in the brain”. The “accumulation in the brain and elimination into the urinary bladder, PET” value with SGLTs [3] is “accumulated in the brain and eliminated into the urinary bladder”. Moreover, the “Hexokinase Vmax” value in the data set on Hexokinase [4] was 0.5.

As for `O=C[C@H](O)[C@@H](O)[C@H](O)[C@H](O)CF` [6-F-4-deoxy-D-glucose], the Ki is 1.3 mM on human GLUT1 (setting [11]) and 1 mM on human GLUT1 (setting [12]).

For the molecule `OCC1OC(O)C(O)C(F)C1O` (stereo not shown), on human GLUT1 (setting [11]), the Ki was roughly 7 mM. In addition, the Ki on human GLUT1 (setting [12]) is 7 mM. Besides, in the data set on Hexokinase [5], the “hexokinase affinity lower than that for D-glucose” value amounted to 400 fold and the “hexokinase maximum velocity lower than that for D-glucose” value came out at 10 fold. Also, in the data set on Hexokinase [6], the “substrate quality for hexokinase” value is listed as “poor substrates for hexokinase”. In addition, in the data set with Hexokinase [4], the “Hexokinase Vmax” value is reported as 0.1 and the Ki was 70 mM.

As for `OC[C@H]1OC(F)[C@H](O)[C@@H](O)[C@@H]1O` (stereo partly drawn) [1-F-1-deoxy-D-glucose, 1-[^18F]fluoro-1-deoxy-D-glucose], the Ki on human GLUT1 (setting [12]) is 15 mM.

Turning to `O=C[C@H](O)[C@@H](O)[C@@H](O)[C@H](O)CF`, the Ki at human GLUT1 (setting [11]) is roughly 7 mM.

Consider `OC[C@H]1OC([18F])[C@H](O)[C@@H](O)[C@@H]1O` (stereo partly drawn) [1-F-1-deoxy-D-glucose, 1-[^18F]fluoro-1-deoxy-D-glucose], for which the “substrate quality for hexokinase” value with Hexokinase [6] is recorded as “poor substrates for hexokinase”.

As for `OC[C@H]1OC(O)[C@H](F)[C@@H](O)[C@@H]1O` (stereo partly drawn) [2-F-2-deoxy-D-glucose, 2-deoxy-2-[^18F]fluoro-D-glucose], the Ki was 3.6 mM at human GLUT1 (setting [12]) and 0.2 mM on Hexokinase [4].

Regarding `CO[C@H]1O[C@H](CO)[C@@H](O)[C@H](O)[C@H]1O` [alpha-methyl-D-glucopyranoside], the “concentration in cells above plasma concentrations” value in the data set on SGLT1 [7] is listed as no more than 800 fold.

As for `O=C[C@H](O)[C@@H](O)[C@@H](O)[C@H](O)CO` [D-galactose], on human GLUT1 (setting [12]), the Ki was 90 mM.

As to `O=C[C@H](O)[C@@H](O)[C@H](F)[C@H](O)CO` [4-F-4-deoxy-D-glucose], the Ki on Hexokinase [4] is 84 mM.

With `O=C[C@H](O)[C@@H](O)[C@H](O)[C@H](O)C[18F]` [6-F-4-deoxy-D-glucose], the “substrate quality for hexokinase” value in the data set on Hexokinase [6] is given as “poor substrates for hexokinase”. In addition, the “Hexokinase Vmax” value in the data set with Hexokinase [4] is reported as 0.

On to `O=C[C@H](O)[C@@H](O)[C@H](O)[C@H](O)CO` [D-glucose], for which the Ki is roughly 7 mM on human GLUT1 (setting [11]), 6 mM at human GLUT1 (setting [12]) and 0.2 mM at Hexokinase [4]. Also, the “Hexokinase Vmax” value in the data set with Hexokinase [4] is reported as 1.

In the case of `O=C[C@H](O)[C@@H](O)[C@H]([18F])[C@H](O)CO` [4-F-4-deoxy-D-glucose], in the data set with Hexokinase [5], the “hexokinase affinity lower than that for D-glucose” value came to 400 fold and the “hexokinase maximum velocity lower than that for D-glucose” value was 10 fold. Moreover, in the data set on Hexokinase [6], the “substrate quality for hexokinase” value was “poor substrates for hexokinase”. The “uptake into brain, microPET” value in data set [8] is listed as “taken up rapidly into rodent brains”. Besides, the “Hexokinase Vmax” value in the data set with Hexokinase [4] is listed as 0.1.

B1: human SGLT1 (Homo sapiens) (protein)
chain: MDSSTWSPKTTAVTRPVETHELIRNAADISIIVIYFVVVMAVGLWAMFSTNRGTVGGFFLAGRSMVWWPIGASLFASNIGSGHFVGLAGTGAASGIAIGGFEWNALVLVVVLGWLFVPIYIKAGVVTMPEYLRKRFGGQRIQVYLSLLSLLLYIFTKISADIFSGAIFINLALGLNLYLAIFLLLAITALYTITGGLAAVIYTDTLQTVIMLVGSLILTGFAFHEVGGYDAFMEKYMKAIPTIVSDGNTTFQEKCYTPRADSFHIFRDPLTGDLPWPGFIFGMSILTLWYWCTDQVIVQRCLSAKNMSHVKGGCILCGYLKLMPMFIMVMPGMISRILYTEKIACVVPSECEKYCGTKVGCTNIAYPTLVVELMPNGLRGLMLSVMLASLMSSLTSIFNSASTLFTMDIYAKVRKRASEKELMIAGRLFILVLIGISIAWVPIVQSAQSGQLFDYIQSITSYLGPPIAAVFLLAIFWKRVNEPGAFWGLILGLLIGISRMITEFAYGTGSCMEPSNCPTIICGVHYLYFAIILFAISFITIVVISLLTKPIPDVHLYRLCWSLRNSKEERIDLDAEEENIQEGPKETIEIETQVPEKKKGIFRRAYDLFCGLEQHGAPKMTEEEEKAMKMKMTDTSEKPLWRTVLNVNGIILVTVAVFCHAYFA
notes: expressed in transfected cells; host or cells: Xenopus laevis oocytes
Regarding B1, the Km in [9] turned out to be 500 µM; in data set [10] it was 600 µM.
